This note sets out measurements from ChEMBL document CHEMBL1147250, “Enhancement of the antiplasmodial activity of quassin by transformation into a gamma-lactone” (J Nat Prod, 2003).

The test system of data set [1] is Plasmodium falciparum. Put plainly: Antiplasmodial activity against chloroquine-resistant Plasmodium falciparum K1 infected erythrocytes by [3H]hypoxanthine uptake. The data set is classed as functional, organism-based.
Data set [2] deals with Plasmodium falciparum. Kind of data set: Antiplasmodial activity against Plasmodium falciparum K1.
Data set [3] in a line: Selectivity index, ratio of IC50 for human KB cells to IC50 for Plasmodium falciparum K1. To be noted: KB cells (cytotoxicity) versus Plasmodium falciparum K1, read-out: Selectivity Index. The data set is classed as toxicity, cell-based.

pIC50: −log10 of the molar value.

As usually defined, the pIC50 is −log10 of the IC50, conventionally taken in molar units. In the case of `COC1=C[C@@H](C)[C@@H]2C[C@H]3OC(OC(=O)c4cccc(Cl)c4)[C@H](O)[C@H]4C(C)=C(OC)C(=O)[C@H]([C@@]2(C)C1=O)[C@]43C` (some centres not stated), the values for the pIC50 in data set [1] and in data set [2] were 3.63 and 5.74, respectively. For the same compound, the selectivity ratio in data set [3] was 112.

Take `CC[C@H]1CN2CCc3cc(OC)c(OC)cc3[C@@H]2C[C@@H]1C[C@H]1NCCc2cc(OC)c(OC)cc21`: in data set [1], the pIC50 is 6.02.

For `COC1=C[C@@H](C)[C@@H]2C[C@H]3OC(=O)[C@H](O)[C@H]4C(C)=C(OC)C(=O)[C@H]([C@@]2(C)C1=O)[C@]43C`, the pIC50 is less than 3.00 in data set [1] and 3.03 in data set [2]. Moreover, in data set [3], the selectivity ratio is more than 1.1.

Take `COC1=C[C@@H](C)[C@@H]2C[C@H]3OC=C[C@H]4C(C)=C(OC)C(=O)[C@H]([C@@]2(C)C1=O)[C@@]34C` [ANHYDROQUASSIN]: the pIC50 in data set [1] was less than 3.00; in data set [2] it was 3.09. In addition, the selectivity ratio in data set [3] is more than 1.

Consider `CCN(CC)CCCC(C)Nc1ccnc2cc(Cl)ccc12` (configuration not stated) [CHLOROQUINE PHOSPHATE], for which, in data set [2], the pIC50 was 6.22.

Regarding `COC1=C[C@@H](C)[C@@H]2C[C@H]3OC(O)[C@H](O)[C@H]4C(C)=C(OC)C(=O)[C@H]([C@@]2(C)C1=O)[C@]43C` (some centres not stated) [HYDROXYNEOQUASSINS], the pIC50 in data set [2] is 4.17. Compared with the last compound, the pIC50 is 2.05 log units lower.

Consider `COC1=C[C@@H](C)[C@@H]2C[C@H]3OC(OC4C[C@H]5C(C)=C(OC)C(=O)[C@@H]6[C@@]7(C)C(=O)C(OC)=C[C@@H](C)[C@@H]7C[C@@H](O4)[C@]65C)C[C@H]4C(C)=C(OC)C(=O)[C@H]([C@@]2(C)C1=O)[C@@]34C` (some centres not stated) [NEOQUASSIN ETHER], for which the pIC50 was 3.83 in data set [1] and 5.01 in data set [2]. Further, the selectivity ratio in data set [3] is 15.3.

On to `COC1=C[C@@H](C)[C@@H]2C[C@H]3OC(O)C[C@H]4C(C)=C(OC)C(=O)[C@H]([C@@]2(C)C1=O)[C@@]34C` (some centres not stated) [NEOQUASSIN], for which the pIC50 is 3.21 in data set [1] and 3.33 in data set [2]. Further, the selectivity ratio in data set [3] was found to be 1.3.

For `COC1=C[C@@H](C)[C@@H]2C[C@H]3O[C@@H](O)[C@H]4C(C)=C(OC)C(=O)[C@H]([C@@]2(C)C1=O)[C@]43C` [QUASSILACTOL], the results for the pIC50 in data set [1] and in data set [2] were 3.24 and 4.19, respectively. Moreover, the selectivity ratio in data set [3] came out at 8.9.

`COC1=C[C@@H](C)[C@@H]2C[C@H]3OC(=O)[C@H]4C(C)=C(OC)C(=O)[C@H]([C@@]2(C)C1=O)[C@]43C` [QUASSILACTONE]: the pIC50 is 3.39 in data set [1] and 4.64 in data set [2]. In addition, the selectivity ratio in data set [3] stood at 17.7.

Consider `COC1=C[C@@H](C)[C@@H]2C[C@H]3OC(=O)C[C@H]4C(C)=C(OC)C(=O)[C@H]([C@@]2(C)C1=O)[C@@]34C` [QUASSIN], for which the pIC50 was less than 3.00 in data set [1] and 3.04 in data set [2]. Moreover, the selectivity ratio in data set [3] is more than 1.
